Legend:
SCD5 = biological target: T1, SCD5 (Homo sapiens, UniProt Q86SK9); assay: Growth inhibition of humanized yeast strain expressing SCD5 as sole desaturase; format: cell-based
T1 construct: host or cells: S. cerevisiae ole1Δ strain (W303 pdr1Δ pdr3Δ background), plasmid pRS316 with TDH3 promoter and CYC1 terminator
T1 sequence (Q86SK9 1-330): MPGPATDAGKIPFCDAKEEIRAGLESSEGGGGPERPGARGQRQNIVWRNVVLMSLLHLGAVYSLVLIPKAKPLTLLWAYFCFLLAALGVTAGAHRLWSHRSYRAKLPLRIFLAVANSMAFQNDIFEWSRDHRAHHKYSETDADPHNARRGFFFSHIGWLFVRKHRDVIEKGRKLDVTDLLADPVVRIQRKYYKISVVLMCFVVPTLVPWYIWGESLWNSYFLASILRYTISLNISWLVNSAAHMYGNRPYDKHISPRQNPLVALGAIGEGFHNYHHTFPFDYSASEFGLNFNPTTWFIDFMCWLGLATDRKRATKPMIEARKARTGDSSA
Summary of the method: (§1)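 Yeast ole1Δ strain (W303 pdr1Δ pdr3Δ background) carrying plasmid-borne Ole1, SCD1 or SCD5 as sole desaturase was grown in uracil-lacking media, pre-cultured in raffinose for 6 h, then seeded in galactose medium with compound in DMSO. Growth was read as OD600 after 30° C. incubation: 24 h for Ole1, 40 h for SCD1/SCD5.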

SCD1 = biological target: T2, SCD1 (Homo sapiens, UniProt O00767); assay: Growth inhibition of humanized yeast strain expressing SCD1 as sole desaturase; format: cell-based
T2 construct: host or cells: S. cerevisiae ole1Δ strain (W303 pdr1Δ pdr3Δ background), plasmid pRS316 with TDH3 promoter and CYC1 terminator
T2 sequence (O00767 1-359): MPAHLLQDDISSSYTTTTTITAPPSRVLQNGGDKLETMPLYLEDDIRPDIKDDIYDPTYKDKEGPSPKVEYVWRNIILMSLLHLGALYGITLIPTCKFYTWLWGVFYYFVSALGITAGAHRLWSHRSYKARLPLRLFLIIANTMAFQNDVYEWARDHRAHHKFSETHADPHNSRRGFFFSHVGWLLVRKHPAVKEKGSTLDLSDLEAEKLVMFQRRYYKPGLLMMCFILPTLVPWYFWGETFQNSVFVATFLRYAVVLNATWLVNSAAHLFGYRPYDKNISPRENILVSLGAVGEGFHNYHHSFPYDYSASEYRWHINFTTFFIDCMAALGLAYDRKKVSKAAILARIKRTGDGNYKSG
Summary of the method: as §1

[1] = humanized yeast strain expressing SCD5
[2] = humanized yeast strain expressing SCD1
[3] = growth inhibition of humanized yeast strain expressing human SCD5
[4] = growth inhibition of humanized yeast strain expressing human SCD1

| SMILES | IC50 (SCD5; humanized yeast strain, 40 h) | IC50 (SCD1; humanized yeast strain, 40 h) | other results |
| --- | --- | --- | --- |
| CC(C)n1ncc2ccc(-c3noc(C4CCN(C(=O)CNC(=O)c5cccc(C#N)c5)CC4(F)F)n3)cc21 (stereo not shown) [Compound 523] |  |  | IC50 (SCD5; [1]): > 45 µM; IC50 (SCD1; [2]): > 45 µM |
| CC(C)(C)OC(=O)N1CCC(c2noc(-c3ccccc3N3CCOCC3)n2)CC1 [Compound 1145] | 11.1 µM | > 45 µM |  |
| CC(C)(C)OC(=O)N1CC=C(c2nsc(-c3ccc4cnn(C5COC5)c4c3)n2)CC1 [Compound 790] | 0.053 µM | > 45 µM |  |
| COC(=O)N1CCN(c2noc(-c3ccc4cnn(C5COC5)c4c3)n2)CC(F)(F)C1 [Compound 1034] | 0.639 µM | > 45 µM |  |
| CC(C)(C)OC(=O)N1CCN(c2nnc(-c3ccc4cnn(C5COC5)c4c3)o2)CC1 [Compound 976] | 5.33 µM | > 45 µM |  |
| O=C(N1CCN(c2noc(-c3ccnc(NC4COC4)c3)n2)CC1)C1(F)CC1 [Compound 1148] | 19.4 µM | > 45 µM |  |
| CC(C)(C)OC(=O)N1CCC(c2nc(-c3ccc4cn(C5CN(C(=O)OC(C)(C)C)C5)nc4c3)no2)CC1 [Compound 656] |  |  | IC50 (SCD5; [3]): > 45 µM; IC50 (SCD1; [4]): > 45 µM |
| CC(C)(C)OC(=O)N1CCC(c2ccc(-c3ccc4cnn(C5COC5)c4c3)cn2)CC1 [Compound 966] | 0.15 µM | > 45 µM |  |
| CC(C)(C)OC(=O)N1CCC(c2nc(-c3ccc4c(c3)N(C3COC3)C(=O)CC4)no2)CC1 [Compound 662] |  |  | IC50 (SCD5; [3]): > 45 µM; IC50 (SCD1; [4]): > 45 µM |
| COC(=O)N1CCC(c2noc(-c3ccc4cnc(C5COC5)n4c3)n2)CC1 [Compound 917] | 0.1 µM | > 45 µM |  |
| CC(=O)N1CC(n2ncc3ccc(-c4noc(N5CCN(C(=O)OC(C)(C)C)CC5)n4)cc32)C1 [Compound 897] | 0.06 µM | > 45 µM |  |
| CC(C)(C)OC(=O)N1CCC(c2nc(-c3ccn4cnc(C#N)c4c3)no2)CC1 [Compound 833] | > 45 µM | > 45 µM |  |
| CC(C)(C)OC(=O)N1CCC(c2noc(-c3cncc(C4CCOC4)c3)n2)CC1 (stereo not shown) [Compound 1190] | 0.06 µM | > 45 µM |  |
| CC(C)(C)OC(=O)N1CCC(c2nc(-c3ccc4c(Br)ncn4c3)no2)CC1 [Compound 872] | 8.06 µM | > 45 µM |  |
| CC(C)(C)OC(=O)N1CCC(c2noc(-c3cc(C4CCOC4)ccn3)n2)CC1 (stereo not shown) [Compound 1192] | 0.04 µM | > 45 µM |  |
| Cc1nn(C)c2cc(-c3noc(C4CCN(Cc5ccccc5)C(=O)C4)n3)ccc12 (stereo not shown) [Compound 354] |  |  | IC50 (SCD5; [1]): > 45 µM; SCD5 % Max Inhibition (SCD5; [1]): 4.29%; IC50 (SCD1; [2]): > 45 µM; SCD1 % Max Inhibition (SCD1; [2]): 30.16% |
| CC(C)(C)CC(=O)N1CCC(c2nc(-c3ccc4cn[nH]c4c3)no2)CC1 [Compound 732] |  |  | IC50 (SCD5; [3]): 31.8 µM; IC50 (SCD1; [4]): > 45 µM |
| CC(C)(C)OC(=O)N1CCC(c2nc(-c3ccc4cnn([C@H]5C[C@@H](O)C5)c4c3)no2)CC1 [Compound 823] | 0.119 µM | > 45 µM |  |
| O=C(c1ccccc1F)N1CCC(c2noc(-c3ccc4cnn(C5COC5)c4c3)n2)CC1 [Compound 696] |  |  | IC50 (SCD5; [3]): 0.08 µM; IC50 (SCD1; [4]): > 45 µM |
| CC(C)C(=O)N1CCC(c2nc(-c3ccc(N4CCOCC4)cc3)no2)CC1 [Compound 1165] | > 45 µM | > 45 µM |  |
| CC(C)n1ncc2ccc(-c3nnc(C4CCN(C(=O)OC(C)(C)C)CC4)o3)cc21 [Compound 849] | 0.644 µM | > 45 µM |  |
| COC(=O)N1CCC(c2noc(-c3cccc(C4CCO4)c3)n2)CC1 (stereo not shown) [Compound 1191] | 1.36 µM | > 45 µM |  |
| O=C(c1ccccc1F)N1CCC(c2noc(-c3ccnc(Cl)c3)n2)CC1 [Compound 1132] | > 45 µM | > 45 µM |  |
| CC(C)(C)OC(=O)N1CCC(c2cc(-c3cc4c(cn3)cnn4C3COC3)on2)CC1 [Compound 1107] | 0.01 µM | > 45 µM |  |

| SMILES | IC50 (SCD5; humanized yeast strain, 40 h) | IC50 (SCD1; humanized yeast strain, 40 h) | other results |
| --- | --- | --- | --- |
| CC(C)(C)OC(=O)N1CCN(c2noc(-c3ccnc(Cl)c3)n2)CC1 [Compound 754] | 16.5 µM | > 45 µM |  |
| CC(C)(C)OC(=O)N1CCN(c2noc(-c3ccc4cnn(C5COC5)c4c3)n2)CC(F)(F)C1 [Compound 1012] | 0.01 µM | 15 µM |  |
| O=C(C1CC1)N1CCC(c2nc(-c3ccnc(F)c3)no2)CC1 [Compound 1128] | > 45 µM | > 45 µM |  |
| Cc1nn(C)c2cc(-c3noc(C4CCN(C(=O)CCC(F)(F)F)CC4)n3)ccc12 [Compound 518] |  |  | IC50 (SCD5; [1]): 2.95 µM; IC50 (SCD1; [2]): > 45 µM |
| CCC(=O)N1CCC(c2noc(-c3ccc4c(C)nn(C)c4c3)n2)CC1 [Compound 939] | 10.9 µM | > 45 µM |  |
| CC(C)(C)OC(=O)N1CCC(c2noc(-c3ccc4cnn(C5CNC5)c4c3)n2)CC1 [Compound 918] | 0.8 µM | > 45 µM |  |
| Cc1nn(C)c2cc(-c3nc(C4CCN(S(=O)(=O)C5CC5)CC4)no3)ccc12 [Compound 922] | 6.56 µM | > 45 µM |  |
| CC(C)C(=O)N1CCC(c2noc(-c3cc(F)c4cnn(C5COC5)c4c3)n2)CC1 [Compound 1068] | 0.00375 µM | > 45 µM |  |
| Cc1nn(C)c2cc(-c3noc(C4CCN(C(=O)CNC(=O)c5ccc(Cl)cc5)CC4(F)F)n3)ccc12 (stereo not shown) [Compound 554] |  |  | IC50 (SCD5; [1]): 1.07 µM; IC50 (SCD1; [2]): 4.08 µM |
| Cn1ccc(-c2cc(-c3nc(C4CCN(C(=O)OC5(C)CC5)CC4)no3)ccn2)n1 [Compound 1185] | > 45 µM | > 45 µM |  |
| CC(C)n1ncc2ccc(-c3noc(N4C[C@@H]5CN(C(=O)OC(C)(C)C)C[C@H]5C4)n3)cc21 [Compound 513] |  |  | IC50 (SCD5; [1]): > 45 µM; IC50 (SCD1; [2]): > 45 µM |
| CC(C)n1ncc2ccc(-c3nc(C4CCN(C(=O)OC5(C)CC5)CC4)no3)cc21 [Compound 628] |  |  | IC50 (SCD5; [3]): 0.01 µM; IC50 (SCD1; [4]): > 45 µM |
| CC(C)(C)OC(=O)N1CCC(c2ccc(-c3ccc4cnn(C5COC5)c4c3)cc2)CC1 [Compound 967] | 1.52 µM | > 45 µM |  |
| CC(C)(C)C(=O)N1CC2(CC(c3noc(-c4ccc5cnn(C6COC6)c5c4)n3)C2)C1 [Compound 1033] | 3.91 µM | > 45 µM |  |
| COC(=O)N1CCC(c2noc(-c3ccc4cnn([C@H]5CCOC5)c4c3)n2)CC1 [Compound 879] | 0.01 µM | 5.5 µM |  |
| C=C(C)c1ncn2ccc(-c3noc(C4CCN(C(=O)OC(C)(C)C)CC4)n3)cc12 [Compound 855] | > 45 µM | > 45 µM |  |
| CC(C)(C)CC(=O)N1CCC(c2nc(-c3ccc4cn(C(=O)C5CC5)nc4c3)no2)CC1 [Compound 674] |  |  | IC50 (SCD5; [3]): > 45 µM; IC50 (SCD1; [4]): > 45 µM |
| COC(=O)N1CCC(c2nc(-c3cccc(C4CCOC4)c3)no2)CC1 (stereo not shown) [Compound 819] | 3.72 µM | > 45 µM |  |
| CC(C)(C)CC(=O)N1CCC(c2nc(-c3cccc(C4CCOC4)c3)no2)CC1 (stereo not shown) [Compound 782] | 0.149 µM | > 45 µM |  |
| CC(C)(C)OC(=O)N1CCC(c2noc(-c3cccc(N4CCOCC4)c3F)n2)CC1 [Compound 1154] | 0.0157 µM | > 45 µM |  |
| CC(C)n1ncc2ccc(-c3nc(C4CCN(C(=O)OC(C)(C)C)C4)no3)cc21 (stereo not shown) [Compound 524] |  |  | IC50 (SCD5; [1]): 2.5 µM; IC50 (SCD1; [2]): > 45 µM |
| CC(C)n1ncc2ccc(-c3noc(N4CCN(C(=O)c5ccccc5)CC4)n3)cc21 [Compound 362] |  |  | IC50 (SCD5; [1]): > 45 µM; SCD5 % Max Inhibition (SCD5; [1]): 2.26%; SCD1 % Max Inhibition (SCD1; [2]): 67.00% |
| CC1(OC(=O)N2CCC(c3nc(-c4ccc5cnn(C6CCOC6)c5c4)no3)CC2)CC1 (stereo not shown) [Compound 777] | 0.01 µM | 4.16 µM |  |

From patent US11873298B2, “Compounds and uses thereof” (JANSSEN PHARMACEUTICA NV, priority 2017, dated 2024)
